Laboratory results: paper PMC11702208 (RSC Advances, 2025)

How the values were obtained:
MOLT-4 = experiment: NCI cytotoxicity screen; format: cell-based, human
RPMI-8226 = experiment: NCI cytotoxicity screen; format: cell-based, human
SR = experiment: NCI cytotoxicity screen; format: cell-based, human
A549/ATCC = experiment: NCI cytotoxicity screen; format: cell-based, human
HOP-92 = experiment: NCI cytotoxicity screen; format: cell-based, human
NCI-H23 = experiment: NCI cytotoxicity screen; format: cell-based, human
NCI-H322M = experiment: NCI cytotoxicity screen; format: cell-based, human
NCI-H460 = experiment: NCI cytotoxicity screen; format: cell-based, human; details: 10.0 μM one dose
NCI-H522 = experiment: NCI cytotoxicity screen; format: cell-based, human; details: 10.0 μM one dose
HCT-116 = experiment: NCI cytotoxicity screen; format: cell-based, human
HT29 = experiment: NCI cytotoxicity screen; format: cell-based, human; details: HT-29
KM12 = experiment: NCI cytotoxicity screen; format: cell-based, human
SW-620 = experiment: NCI cytotoxicity screen; format: cell-based, human
SF-268 = experiment: NCI cytotoxicity screen; format: cell-based, human
SF-295 = experiment: NCI cytotoxicity screen; format: cell-based, human
SF-539 = experiment: NCI cytotoxicity screen; format: cell-based, human
SNB-19 = experiment: NCI cytotoxicity screen; format: cell-based, human
SNB-75 = experiment: NCI cytotoxicity screen; format: cell-based, human; details: 10.0 μM one dose
U251 = experiment: NCI cytotoxicity screen; format: cell-based, human; details: U-251
LOX IMVI = experiment: NCI cytotoxicity screen; format: cell-based, human
MALME-3M = experiment: NCI cytotoxicity screen; format: cell-based, human
M14 = experiment: NCI cytotoxicity screen; format: cell-based, human
SK-MEL-5 = experiment: NCI cytotoxicity screen; format: cell-based, human
UACC-62 = experiment: NCI cytotoxicity screen; format: cell-based, human
OVCAR-4 = experiment: NCI cytotoxicity screen; format: cell-based, human
OVCAR-5 = experiment: NCI cytotoxicity screen; format: cell-based, human
SK-OV-3 = experiment: NCI cytotoxicity screen; format: cell-based, human; details: 10.0 μM one dose
786-0 = experiment: NCI cytotoxicity screen; format: cell-based, human
ACHN = experiment: NCI cytotoxicity screen; format: cell-based, human
CAKI-1 = experiment: NCI cytotoxicity screen; format: cell-based, human
RXF 393 = experiment: NCI cytotoxicity screen; format: cell-based, human
SN12C = experiment: NCI cytotoxicity screen; format: cell-based, human; details: 10.0 μM one dose; SN-12C
UO-31 = experiment: NCI cytotoxicity screen; format: cell-based, human
DU-145 = experiment: NCI cytotoxicity screen; format: cell-based, human
MCF7 = experiment: NCI cytotoxicity screen; format: cell-based, human
MDA-MB-231/ATCC = experiment: NCI cytotoxicity screen; format: cell-based, human
HS 578T = experiment: NCI cytotoxicity screen; format: cell-based, human
T-47D = experiment: NCI cytotoxicity screen; format: cell-based, human; details: 10.0 μM one dose; T-47D
[1] = test system: Leukemia subpanel tumor cell lines; experiment: NCI cytotoxicity screen, subpanel; format: cell-based, human; details: subpanel value, Leukemia
[2] = test system: NSC lung cancer subpanel tumor cell lines; experiment: NCI cytotoxicity screen, subpanel; format: cell-based, human; details: subpanel value, NSC lung cancer
[3] = test system: Melanoma subpanel tumor cell lines; experiment: NCI cytotoxicity screen, subpanel; format: cell-based, human; details: subpanel value, Melanoma
[4] = test system: Prostate cancer subpanel tumor cell lines; experiment: NCI cytotoxicity screen, subpanel; format: cell-based, human; details: subpanel value, Prostate cancer
[5] = test system: Breast cancer subpanel tumor cell lines; experiment: NCI cytotoxicity screen, subpanel; format: cell-based, human; details: subpanel value, Breast cancer
HL-60(TB) = experiment: cells; details: Homo sapiens
K-562 = experiment: cells; details: Homo sapiens, K562

Work on `NS(=O)(=O)c1ccc(Cn2c(SCC(=O)NN=Cc3ccccc3O)nc3ccccc3c2=O)cc1` [Compound 6, 4-((2-((2-(2-(2-Hydroxybenzylidene)hydrazineyl)-2-oxoethyl)thio)-4-oxoquinazolin-3(4H)-yl)methyl)benzenesulfonamide] yielded a GI % (MOLT-4; 10.0 μM one dose) of 80%, a GI % (RPMI-8226; 10.0 μM one dose) of 51% and a GI % (SR; 10.0 μM one dose) of 76%. It also gave a GI % (A549/ATCC; 10.0 μM one dose, A549/ATCC) of 31%, a GI % (HOP-92; 10.0 μM one dose) of 46% and a GI % (NCI-H23; 10.0 μM one dose) of 37%. For the same molecule, the GI % (NCI-H322M; 10.0 μM one dose) was 53%, the GI % (NCI-H460) was 51% and the GI % (NCI-H522) was 101%. The GI % (HCT-116; 10.0 μM one dose) was 58%, the GI % (HT29; 10.0 μM one dose) was 14% and the GI % (KM12; 10.0 μM one dose, KM-12) was 61%. For the same molecule, the GI % (SW-620; 10.0 μM one dose) was 40%, the GI % (SF-268; 10.0 μM one dose) was 62% and the GI % (SF-295; 10.0 μM one dose) was 35%. The GI % (SF-539; 10.0 μM one dose) was 46%, the GI % (SNB-19; 10.0 μM one dose) was 45% and the GI % (SNB-75) was 15%. The GI % (U251; 10.0 μM one dose) was 57%, the GI % (LOX IMVI; 10.0 μM one dose) was 84% and the GI % (MALME-3M; 10.0 μM one dose, MALME-3M) was 41%. It also gave a GI % (M14; 10.0 μM one dose) of 58%, a GI % (SK-MEL-5; 10.0 μM one dose) of 42% and a GI % (UACC-62; 10.0 μM one dose) of 62%. For the same molecule, the GI % (OVCAR-4; 10.0 μM one dose, IGROV-4) was 60%, the GI % (OVCAR-5; 10.0 μM one dose, IGROV-5) was 32% and the GI % (SK-OV-3) was 37%. The GI % (786-0; 10.0 μM one dose) was 29%, the GI % (ACHN; 10.0 μM one dose) was 28% and the GI % (CAKI-1; 10.0 μM one dose) was 46%. The GI % (RXF 393; 10.0 μM one dose) was 28%, the GI % (SN12C) was 44% and the GI % (UO-31; 10.0 μM one dose) was 39%. For the same molecule, the GI % (DU-145; 10.0 μM one dose) was 28%, the GI % (MCF7; 10.0 μM one dose, MCF-7) was 50% and the GI % (MDA-MB-231/ATCC; 10.0 μM one dose, MDA-MB-231/ATCC) was 70%. The GI % (HS 578T; 10.0 μM one dose, HS-578T) was 29% and the GI % (T-47D) was 67%.

With `COc1cc2ncnc(Nc3ccc(F)c(Cl)c3)c2cc1OCCCN1CCOCC1` [Gefitinib, reference compound] the GI50 (MOLT-4; Homo sapiens) was 3.98 µM, the GI50 (RPMI-8226; Homo sapiens) was 1.58 µM and the GI50 (SR; Homo sapiens) was 3.16 µM. It also gave a GI50 (A549/ATCC; Homo sapiens, A549) of 7.94 µM, a GI50 (HOP-92; Homo sapiens) of 7.94 µM and a GI50 (NCI-H23; Homo sapiens) of 15.8 µM. For the same molecule, the GI50 (NCI-H322M; Homo sapiens) was 0.08 µM, the GI50 (HCT-116; Homo sapiens) was 7.94 µM and the GI50 (HT29; Homo sapiens) was 3.98 µM. The GI50 (KM12; Homo sapiens, KM12) was 7.94 µM, the GI50 (SW-620; Homo sapiens) was 7.94 µM and the GI50 (SF-268; Homo sapiens) was 7.94 µM. For the same molecule, the GI50 (SF-295; Homo sapiens) was 1.99 µM, the GI50 (SF-539; Homo sapiens) was 10 µM and the GI50 (SNB-19; Homo sapiens) was 12.6 µM. It also gave a GI50 (U251; Homo sapiens) of 10 µM, a GI50 (LOX IMVI; Homo sapiens) of 7.94 µM and a GI50 (MALME-3M; Homo sapiens, Malme-3M) of 3.16 µM. For the same molecule, the GI50 (M14; Homo sapiens) was 5.01 µM, the GI50 (SK-MEL-5; Homo sapiens) was 3.98 µM and the GI50 (UACC-62; Homo sapiens) was 5.01 µM. It also gave a GI50 (OVCAR-4; Homo sapiens, OVCAR-4) of 7.94 µM, a GI50 (OVCAR-5; Homo sapiens, OVCAR-5) of 10 µM and a GI50 (786-0; Homo sapiens) of 7.94 µM. It also gave a GI50 (ACHN; Homo sapiens) of 0.2 µM, a GI50 (CAKI-1; Homo sapiens) of 0.16 µM and a GI50 (RXF 393; Homo sapiens) of 5.01 µM. It also gave a GI50 (UO-31; Homo sapiens) of 1.25 µM, a GI50 (DU-145; Homo sapiens) of 2.51 µM and a GI50 (MCF7; Homo sapiens, MCF7) of 10 µM. It also gave a GI50 (MDA-MB-231/ATCC; Homo sapiens, MDA-MB-231) of 12.6 µM, a GI50 (HS 578T; Homo sapiens, Hs-578T) of 10 µM and a GI50 ([1]; Homo sapiens) of 2.6 µM. The GI50 [1] was 2.56 µM, the TGI [1] was 12.07 µM and the GI50 ([2]; Homo sapiens) was 2.1 µM. The GI50 [2] was 2.05 µM, the TGI [2] was 13.86 µM and the GI50 ([3]; Homo sapiens) was 3.7 µM. It also gave a GI50 [3] of 3.68 µM, a TGI [3] of 12.49 µM and a GI50 ([4]; Homo sapiens) of 3.3 µM. For the same molecule, the GI50 [4] was 3.29 µM, the TGI [4] was 31.62 µM and the GI50 ([5]; Homo sapiens) was 4.7 µM. For the same molecule, the GI50 [5] was 4.67 µM, the TGI [5] was 18.62 µM and the GI50 (HL-60(TB)) was 5.01 µM. It also gave a GI50 (K-562) of 2.51 µM.
